Experimental data reported in patent US20150080579A1, “Salts and Polymorphs of Dexrabeprazole” (Cipla Limited, priority 2010, published 2015).

Key:
[1] = Storage stability: water content by KF Autotitrator; type: physicochemical
Method: Water content was measured using about 0.2 g sample in methanol by KF Autotitrator.

[2] = Storage stability: impurity profile
[3] = At 6 months, storage at 2° C. to 8° C.
[4] = Initial, stability study at 2° C. to 8° C.

| Compound | Water absorption on storage (in words) ([1]; 2° C. to 8° C. for 6 months) | Water content [1, 3] [% w/w] | Water content [1, 4] [% w/w] | Impurity A [2, 3] [%] | Impurity B [2, 3] [%] | Impurity C [2, 3] [%] | Impurity A [2, 4] [%] | Impurity B [2, 4] [%] | Impurity C [2, 4] [%] | Stability on storage (in words) ([2]; on storage) | Rise in impurities on storage (in words) ([2]; 2° C. to 8° C. for 6 months) |
| --- | --- | --- | --- | --- | --- | --- | --- | --- | --- | --- | --- |
| COCCCOc1ccnc(C[S@@+]([O-])c2nc3ccccc3[nH]2)c1C [dexrabeprazole sodium] | absorbed more water than dexrabeprazole magnesium | 13.58 | 6.84 | 0.06 | 1.25 | 0.33 | 0.02 | 0.87 | 0.22 | not stable on storage |  |
| dexrabeprazole magnesium hydrate |  | 10.46 | 10.27 | 0.02 | 0.07 | 0.09 | 0.02 | 0.07 | 0.09 |  | does not show significant rise in impurities |
